The results in this text go back to patent US7317038B2, “Nerve regeneration promoters containing semaphorin inhibitor as the active ingredient” (Dainippon Sumitomo Pharma Co., Ltd., priority 2000, dated 2008).

“Also recorded” adds a separate entry of the source.

The assay deals with T1, mouse semaphorin 3A (Sema3A) (Mus musculus, UniProt O08665).
T1 sequence (O08665 21-772): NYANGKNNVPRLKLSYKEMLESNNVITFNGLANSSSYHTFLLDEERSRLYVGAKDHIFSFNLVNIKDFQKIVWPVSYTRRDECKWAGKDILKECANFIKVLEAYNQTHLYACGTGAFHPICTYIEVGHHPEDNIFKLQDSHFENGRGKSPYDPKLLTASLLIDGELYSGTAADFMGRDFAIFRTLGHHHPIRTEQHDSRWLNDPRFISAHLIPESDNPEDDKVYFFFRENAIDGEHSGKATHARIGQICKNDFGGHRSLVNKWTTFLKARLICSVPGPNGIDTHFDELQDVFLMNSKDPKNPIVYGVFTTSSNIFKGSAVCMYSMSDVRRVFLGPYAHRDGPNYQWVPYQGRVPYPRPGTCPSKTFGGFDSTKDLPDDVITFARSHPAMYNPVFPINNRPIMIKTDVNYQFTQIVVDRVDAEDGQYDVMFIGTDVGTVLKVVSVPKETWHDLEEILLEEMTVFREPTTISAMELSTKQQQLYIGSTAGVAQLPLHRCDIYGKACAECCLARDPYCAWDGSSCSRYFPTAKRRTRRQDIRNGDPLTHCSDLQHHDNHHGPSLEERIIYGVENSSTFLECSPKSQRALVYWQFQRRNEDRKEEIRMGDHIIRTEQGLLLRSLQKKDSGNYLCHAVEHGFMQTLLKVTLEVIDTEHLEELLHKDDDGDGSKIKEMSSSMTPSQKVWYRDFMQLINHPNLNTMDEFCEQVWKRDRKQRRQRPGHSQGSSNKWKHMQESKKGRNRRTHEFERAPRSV
Put plainly: Suppression of growth cone collapse activity of Sema3A (chick embryo dorsal root ganglions). The format is cell-based. As to the method:
A 96-well plate (Sumitomo Bakelite Co., ltd. ) pre-coated with polylysine was further coated with laminine (20 μg/ml of laminine, for 1 hour at room temperature). Each well was added with 100 μl of medium (F12 medium containing 10% bovine fetal serum, 20 ng/ml of NGF, 100 units/ml of penicillin and 100 μg/ml of streptomycin) which media were then inoculated with dorsal root nerve ganglions excised from E7 (Embryonic day 7) chick embryo and were cultured for 16 to 20 hours under 5% CO2 and at 37° C. Subsequently, the object compounds were added to media at various concentrations and 2 units/ml of mouse semaphorin 3A (Sema3A) was added after cultivating for 1 hour. The cultures were further incubated for another 1 hour. Glutaraldehyde was quickly added therein after said 1 hour to make the final concentration 1%. The cultures were then left for 15 minutes at room temperature so that the tissue sections were fixed, and collapse rates of the growth cones were microscopically observed. A well with no addition of Sema3A was made the control.
The longitudinal and lateral axes in the figures represent the collapse rate of growth cones and the concentration of compounds, respectively. ●▪▴ show the results when Sema3A was added after the addition of the compounds and ◯[…]Δ show those when Sema3A was not added. Further, IC50 (μg/ml) of the inhibitors were determined by the method comprising: calculating the collapse rate of growth cone (A) % of the negative controls (neither compounds nor Sema3a was added); subsequently calculate the collapse rate of growth cone (B) % of the positive controls (compounds were not added but Sema3a was added); and the concentration was chosen for each compound from the chart where the collapse rate of growth cone met (A+B)/2(%), which was made IC50 level. The followings are the results.

Regarding `CC(=O)c1c(C)c(C(=O)C2COc3cc(O)c(O)c(C(=O)O)c3C2=O)cc2c(=O)c3c(C(=O)O)c(O)c(O)cc3oc12` (centres unmarked) [SPF-3059-1], the half-maximal inhibitory concentration (IC50) (E7 chick embryo dorsal root ganglions, 2 units/ml Sema3A added 1 hour after compound, concentration where collapse rate = (A+B)/2, read-out: IC50 of inhibition of the growth cone collapse activity of Sema3A (converted)) was under 173 nM. In addition, the “inhibition of growth cone collapse activity of Sema3A (in words)” value (chick embryo dorsal root ganglions) was “inhibit the growth cone collapse activities of Sema3A in a concentration-dependent manner; also recorded: potently inhibit semaphorin”.
